Results published in patent US11540542B2, “Taste modulating aldehydes” (TAKASAGO INTERNATIONAL CORPORATION, priority 2016, dated 2023).

System: trained experts
Experiment: Monkfruit juice beverage taste comparison, trained experts
Settings: 0.000001% cut of 1% 2,6-nonadienal in ethyl acetate, used at 0.10% in Monkfruit beverage (juice concentrate 0.15%); three trained experts
Protocol: A taste comparison was conducted by combining and mixing 0.000001% cut of 1% 2,6-nonadienal (I % in ethanol) in ethyl acetate and used that dilution at 0.10% in a Monkfruit beverage in water, wherein Monkfruit juice concentrate was present at 0.15%. Three trained experts evaluated the combination against a control of Monkfruit juice without the taste modulation compound.

## CCC=CCCC=CC=O [2,6-nonadienal]
  modulation of off-notes of Monkfruit juice versus control: demonstrated a modulation of the off-notes
